From patent US12594354B2, “Compositions for visualization of cleaning efficacy and product coverage” (priority 2011, dated 2026)
Structures can show the parent of a compound that is named as a salt.

How the values were obtained:
Assay type in all cases: physicochemical
[1] = Visible fluorescence under short (254 nm) and long (360 nm) ultraviolet light; conditions: in distilled water; visually in dark, 9 watt UV lamp at 6 inches
Excerpt: All three tracer substances Riboflavin, Folic Acid and Quinine have unique molecular structures that enable them to mix into base solutions with varying polar and non polar charges. Studies by the authors of the current embodiment have also shown that the substances show an affinity for organic matter residue (e.g. proteins, fats, oils, soil, mineral deposits, etc.). Riboflavin (B2),Folic Acid (B9) and Quinine are approved food additives (Codex General Standard for Food Additives, Codex STAN 192; Code of Federal Regulations Title 21 Sec. 184.1695; Sec. 73.450; Sec. 104.20, Sec. 101.9 and Sec. 172.575). […] Experiments by the inventors have shown that when Riboflavin and Quinine are combined in solution the two GRAS or food additive fluorophores fluoresce synergistically under long and short wave ultraviolet light. [table]

[2] = Detection sensitivity of tracers by UV fluorescence and spectrophotometer; conditions: for sensitivity of spectrophotometer absorption and transmission detection: tracers vs control samples
Excerpt: One method of detecting the presence of the food grade vitamin tracer(s) is by exciting the mixture, treated area or sample swab with ultraviolet light so that the vitamins fluoresce. Riboflavin fluorescence is the identifier for visual observations. Folic Acid fluoresces, but not in the visible spectrum. The color of light is related to the wavelength or frequency of the light. Visible light—to which our eyes are most sensitive—falls in the wavelength range of about 400 to 750 nm. In the absence of visible light and when Riboflavin is excited by long-wave ultraviolet light (maximum lambda=˜365 nm-below the visible spectrum) Riboflavin emits/fluoresces light waves in the visible spectrum (˜450 to 650) which are very distinguishable in the dark when the only other light source is from long (˜365 nm) and midrange (˜312 nm) ultraviolet light. This phenomenon enables visible detection of Riboflavin at levels as low as 1 ppm. It is well know that different compounds have unique absorption and transmission spectra. Another method of quantifying the presence of the food grade vitamin tracers Riboflavin and Folic Acid is by use of a spectrophotometer whereby wavelength absorption and transmission results of known tracers Vs control samples provide characteristic spectra analysis that can be used to determine the absence or presence with sensitivity down to 1 ppm.

[3] = Riboflavin fluorescence persistence in sanitizer and bleach base materials
Excerpt: FIG. 3 is a flow chart showing how the GRAS or food additive composition is mixed with sanitizer(s) or cleaning chemical(s) for visualization of cleaning efficacy so those trained in the art can validate or verify the hygienic condition of equipment or environments after cleaning. The steps involved with making the combined fluorescent additive and base material invention solution include; (1) select the base material and the specific volume that will be used for the application. It is important to know the composition of the base material, its physical properties and establish a set volume. For purposes of this embodiment, base material can be potable water or any of the various sanitation chemicals that has been approved for use in the food, beverage, pharmaceutical, feed industry by appropriate regulatory authorities. The base material will be approximately 95% of the total end product. Potable tap water is an excellent base material for combining with the embodiment composition to produce a solution that can be applied to equipment at any stage of the cleaning process prior final rinse. Quat sanitizers, liquid soaps and detergents have also been shown by the authors to be excellent base materials. Riboflavin mixed easily into solution when 1,000 ppm was added to KayQuat II (>1,000 ppm quaternary ammonia). Fluorescence was intense from day one through day 270 and has not diminished at the time of this publication. Similar tests were performed on Ajax Liquid Soap with Bleach Alternative with similar results.
It should be noted that bench top studies with concentrate hypochlorite solutions have been shown by the authors to rapidly quench Riboflavin fluorescence. […] Highly alkaline ammonia base material produced similar results. The authors were concerned that chlorinated alkaline detergents and/or foaming cleaners would quench the fluorescence of the embodiment composition so tests were performed to determine the effect.

[4] = 2,500 ppm added to a 30% solution of chlorine bleach

Structure (SMILES)	Visual Fluorescence Long Wave (360 nm) [1]	Visual Fluorescence Short Wave (254 nm) [1]	sensitivity of spectrophotometer absorption and transmission detection [2] [ppm]	visible detection level ([2]; excited by long (~365 nm) and midrange (~312 nm) UV in the dark) [ppm]	Fluorescence from day one through day 270 ([3]; 1,000 ppm added to KayQuat II (>1,000 ppm quaternary ammonia))	fluorescence after 8 hours [3, 4]	fluorescence observed for up to 4 hours [3, 4]
Cc1cc2nc3c(=O)[nH]c(=O)nc-3n(C[C@H](O)[C@H](O)[C@H](O)CO)c2cc1C [50 ppm Riboflavin USP in distilled water, Riboflavin]	Moderate	Very Slight					
Nc1nc2ncc(CNc3ccc(C(=O)N[C@@H](CCC(=O)O)C(=O)O)cc3)nc2c(=O)[nH]1 [Folic Acid]			1				
C=C[C@H]1C[N@@]2CC[C@H]1C[C@H]2[C@H](O)c1ccnc2ccc(OC)cc12 [Quinine Sulfate, Dihydrate]	Moderate	Slight					
Cc1cc2nc3c(=O)[nH]c(=O)nc-3n(C[C@H](O)[C@H](O)[C@H](O)CO)c2cc1C [Riboflavin]			1	1	intense	diminished completely	Slight
